From ChEMBL document CHEMBL1125480, “Studies on antidiabetic agents. 11. Novel thiazolidinedione derivatives as potent hypoglycemic and hypolipidemic agents” (1992)

Experiments:
Type in all cases: functional
Mus musculus [1] = species: Mus musculus; assay: Maximum reduction in blood glucose levels in KKA mice at a dosage of 0.005% in diet
Mus musculus [2] = species: Mus musculus; assay: Maximum reduction in plasma triglyceride levels in KKA mice at a dosage of 0.005% in diet
Mus musculus [3] = species: Mus musculus; assay: Effective dose to reduce 25% of glucose levels in blood
Mus musculus [4] = species: Mus musculus; assay: Effective dose to reduce 25% of triglyceride levels in plasma
Mus musculus [5] = species: Mus musculus; assay: Maximum reduction in blood glucose levels in KKA mice at a dosage of 0.001% in diet
Mus musculus [6] = species: Mus musculus; assay: Maximum reduction in plasma triglyceride levels in KKA mice at a dosage of 0.001% in diet

Compound | Reduction (Mus musculus [1]) [%] | Reduction (Mus musculus [2]) [%] | ED25 (Mus musculus [3]; Mus musculus, Blood) [mg/kg/day] | ED25 (Mus musculus [4]) [mg/kg/day] | Reduction (Mus musculus [5]) [%] | Reduction (Mus musculus [6]) [%] | ED25 (Mus musculus [3]) [mg/kg/day]
O=C1NC(=O)C(Cc2ccc(OCc3nc(-c4ccccc4)cs3)cc2)S1 (stereo unspecified) | 48 | 44 | – | – | – | – | –
Cc1oc(C2CCCCC2)nc1C(O)COc1ccc(CC2SC(=O)NC2=O)cc1 (stereo unspecified) | 49 | 67 | – | – | – | – | –
Cc1nc(CCOc2ccc(CC3SC(=O)NC3=O)cc2)cs1 (stereo unspecified) | 42 | 52 | 4 | 4 | 17 | 15 | –
Cc1oc(-c2ccc(O)cc2)nc1CCOc1ccc(CC2SC(=O)NC2=O)cc1 (stereo unspecified) | – | – | – | – | 22 | 26 | –
O=C1NC(=O)C(Cc2ccc(OCc3nc4ccccc4s3)cc2)S1 (stereo unspecified) | 43 | 43 | – | – | – | – | –
CC(C)c1nc(CCOc2ccc(CC3SC(=O)NC3=O)cc2)cs1 (stereo unspecified) | 56 | 45 | – | – | – | – | –
Cc1nc(CCOc2ccc(CC3SC(=O)NC3=O)cc2)oc1-c1ccccc1 (stereo unspecified) | 18 | 7 | – | – | – | – | –
Cc1oc(C2(C)CCCCC2)nc1CCOc1ccc(/C=C2\SC(=O)NC2=O)cc1 | 24 | 9 | – | – | – | – | –
CSc1cccc(-c2nc(CCOc3ccc(/C=C4\SC(=O)NC4=O)cc3)c(C)o2)c1 | 52 | 58 | – | – | – | – | –
O=C1NC(=O)C(Cc2ccc(OCCc3nc(-c4ccccc4)oc3CO)cc2)S1 (stereo unspecified) | 31 | 39 | – | – | – | – | –
Cc1oc(-c2ccco2)nc1COc1ccc(CC2SC(=O)NC2=O)cc1 (stereo unspecified) | 43 | 35 | – | – | – | – | –
Cc1oc(-c2ccccc2)nc1C(=O)COc1ccc(CC2SC(=O)NC2=O)cc1 (stereo unspecified) | 52 | 67 | – | – | – | – | –
CCCc1nc(COc2ccc(CC3SC(=O)NC3=O)cc2)co1 (stereo unspecified) | 12 | 29 | – | – | – | – | –
Cc1nc(COc2ccc(CC3SC(=O)NC3=O)cc2)co1 (stereo unspecified) | – | 1 | – | – | 19 | – | –
Cc1oc(C2CCCCC2)nc1CCOc1ccc(CC2SC(=O)NC2=O)cc1 (stereo unspecified) | 52 | 71 | 0.2 | 0.6 | 51 | 58 | –
Cc1oc(-c2ccccc2)nc1C(=O)COc1ccc(/C=C2\SC(=O)NC2=O)cc1 | 45 | 51 | – | – | – | – | –
O=C1NC(=O)C(Cc2ccc(OCCc3coc(C4CCCCC4)n3)cc2)S1 (stereo unspecified) | – | – | 1 | 9 | 31 | 14 | –
Cc1oc(-c2ccccc2)nc1CCOc1ccc(CC2SC(=O)NC2=O)cc1 (stereo unspecified) | 59 | 66 | 0.05 | 0.09 | 55 | 67 | –
Cc1nc(C(O)COc2ccc(CC3SC(=O)NC3=O)cc2)c(C)o1 (stereo unspecified) | 51 | 62 | 0.2 | 0.5 | 55 | 52 | –
Cc1nc(C(=O)COc2ccc(CC3SC(=O)NC3=O)cc2)c(C)o1 (stereo unspecified) | 39 | 27 | – | – | – | – | –
Cc1nc(CCOc2ccc(CC3SC(=O)NC3=O)cc2)co1 (stereo unspecified) | 37 | 42 | – | 3 | 13 | 20 | 5
CCCc1nc(CCOc2ccc(CC3SC(=O)NC3=O)cc2)co1 (stereo unspecified) | 52 | 65 | 2 | 2 | 29 | 26 | –
O=C1NC(=O)C(Cc2ccc(OCCc3csc(C4CCCCC4)n3)cc2)S1 (stereo unspecified) | – | – | 0.8 | 3 | 43 | 33 | –
Cc1oc(-c2ccc(Cl)cc2)nc1CCOc1ccc(/C=C2\SC(=O)NC2=O)cc1 | 54 | 58 | – | – | – | – | –
Cc1oc(-c2ccccc2)nc1CCCOc1ccc(CC2SC(=O)NC2=O)cc1 (stereo unspecified) | 21 | 29 | – | – | – | – | –
CSc1cccc(-c2nc(CCOc3ccc(CC4SC(=O)NC4=O)cc3)c(C)o2)c1 (stereo unspecified) | 52 | 67 | – | – | – | – | –

Compound | Reduction (Mus musculus [1]) [%] | Reduction (Mus musculus [2]) [%] | ED25 (Mus musculus [3]; Mus musculus, Blood) [mg/kg/day] | ED25 (Mus musculus [4]) [mg/kg/day] | Reduction (Mus musculus [5]) [%] | Reduction (Mus musculus [6]) [%] | ED25 (Mus musculus [3]) [mg/kg/day]
CCc1nc(CCOc2ccc(CC3SC(=O)NC3=O)cc2)cs1 (stereo unspecified) | 55 | 37 | – | – | – | – | –
Cc1oc(-c2ccccc2)nc1COc1ccc(/C=C2\SC(=O)NC2=O)cc1 | 37 | 40 | – | – | – | – | –
Cc1oc(-c2ccccc2Cl)nc1CCOc1ccc(CC2SC(=O)NC2=O)cc1 (stereo unspecified) | – | – | – | – | 52 | 57 | –
Cc1oc(CCOc2ccc(CC3SC(=O)NC3=O)cc2)nc1CC(C)C (stereo unspecified) | 53 | 43 | – | – | – | – | –
CCc1oc(CCOc2ccc(CC3SC(=O)NC3=O)cc2)nc1-c1ccccc1 (stereo unspecified) | 46 | 51 | – | – | – | – | –
Cc1oc(CCOc2ccc(CC3SC(=O)NC3=O)cc2)nc1C1CCCCC1 (stereo unspecified) | 54 | 51 | – | – | – | – | –
Cc1nc(COc2ccc(CC3SC(=O)NC3=O)cc2)cs1 (stereo unspecified) | 19 | 30 | – | – | – | – | –
Cc1oc(-c2ccccc2)nc1C(O)COc1ccc(CC2SC(=O)NC2=O)cc1 (stereo unspecified) | 58 | 81 | 0.05 | 0.1 | 54 | 62 | –
Cc1oc(CCOc2ccc(CC3SC(=O)NC3=O)cc2)nc1-c1ccccc1 (stereo unspecified) | 54 | 60 | – | – | – | – | –
COc1ccc(-c2nc(CCOc3ccc(CC4SC(=O)NC4=O)cc3)c(C)o2)cc1 (stereo unspecified) | 55 | 72 | 0.3 | 0.6 | 53 | 63 | –
Cc1cccc(-c2nc(CCOc3ccc(CC4SC(=O)NC4=O)cc3)c(C)o2)c1 (stereo unspecified) | – | – | 0.05 | 0.06 | 49 | 61 | –
CCc1oc(C)nc1CCOc1ccc(CC2SC(=O)NC2=O)cc1 (stereo unspecified) | 46 | 45 | 3 | 5 | 15 | 0 | –
Cc1oc(-c2cccs2)nc1CCOc1ccc(/C=C2\SC(=O)NC2=O)cc1 | 55 | 57 | – | – | – | – | –
Cc1nc(CCOc2ccc(CC3SC(=O)NC3=O)cc2)c(C)o1 (stereo unspecified) | 55 | 56 | 2 | 3 | 27 | 10 | –
Cc1oc(-c2ccccc2)nc1CCOc1ccc(/C=C2\SC(=O)NC2=O)cc1 | – | – | 0.4 | 0.2 | 55 | 65 | –
Cc1scnc1CCOc1ccc(CC2SC(=O)NC2=O)cc1 (stereo unspecified) | 52 | 45 | – | – | – | – | –
O=C1NC(=O)C(Cc2ccc(OCc3coc(-c4ccccc4)n3)cc2)S1 (stereo unspecified) | 48 | 51 | 3 | 4 | 16 | 12 | –
Cc1nc(C(=O)COc2ccc(/C=C3\SC(=O)NC3=O)cc2)c(C)o1 | 33 | 29 | – | – | – | – | –
CCc1oc(-c2ccccc2)nc1CCOc1ccc(/C=C2\SC(=O)NC2=O)cc1 | 54 | 59 | – | – | – | – | –
O=C1NC(=O)C(Cc2ccc(OCc3csc(-c4cccnc4)n3)cc2)S1 (stereo unspecified) | 25 | 30 | – | – | – | – | –
Cc1nc(CCOc2ccc(/C=C3\SC(=O)NC3=O)cc2)cs1 | 34 | 5 | – | – | – | – | –
COc1ccc(-c2nc(CCOc3ccc(CC4SC(=O)NC4=O)cc3)c(C)o2)cc1OC (stereo unspecified) | – | – | 0.5 | 0.6 | 52 | 54 | –
O=C1NC(=O)C(Cc2ccc(OCc3nc4ccccc4o3)cc2)S1 (stereo unspecified) | 35 | 24 | – | – | – | – | –
CC1(COc2ccc(CC3SC(=O)NC3=O)cc2)CCCCC1 (stereo unspecified) [CIGLITAZONE] | – | – | 31 | 25 | – | – | –
CCc1ccc(CCOc2ccc(CC3SC(=O)NC3=O)cc2)nc1.Cl (stereo unspecified) [PIOGLITAZONE HYDROCHLORIDE] | – | – | 6 | 6 | – | – | –
